The results in this text go back to patent publication US8435964B2, “Ectonucleotidase pyrophosphate/phosphodiestrase-1 (ENPP-1) as a target for the treatment of aortic valve stenosis and cardiovascular calcification” (Universite Laval, priority 2009, dated 2013).

“Also recorded” adds a separate entry of the source.

Test [1] relates to Human valve interstitial cells (VICs). Kind of test: In vitro calcification of valve interstitial cells (calcium content, o-cresolphthalein complexone method). To be noted: day 14 after treatment with calcifying medium; ARL 67156 10 μM and 25 μM. In kind it is cell-based. The procedure:
(§1) Human valve interstitial cells (VICs) were isolated by collagenase digestion from explanted hearts during transplant procedures. Cells were cultured in DMEM containing 10% FBS, 2 mM L-glutamine and 1 mM sodium pyruvate (Invitrogen, Toronto, Ont, Canada). Cells were seeded in 12 well plates (2×10^4 cells/well). To provoke calcification, cells were incubated with a pro-calcifying medium containing: DMEM+5% FBS, 10^−7 M insulin, 50 μg/ml ascorbic acid and NaH2PO4 at 2 mM (in some experiments where it is specified NaH2PO4 was used at 1, 2 and 5 mM). […] In some experiments ARL 67156 (a competitive inhibitor of ENPP-1) (10 μM and 25 μM) was added to the growth medium Studies were conducted at day 0, 7, 14 in triplicate. For calcium quantification, cells were decalcified with 0.6 M HCl for 24 h. The calcium content of the HCl supernatants was determined using the o-cresolphthalein complexone method. After decalcification, cells were washed with PBS and solubilised with 0.1 N NaOH/0.1% SDS. The protein content was determined using Biorad® assay kit (Biorad, Mississauga, Ont, Canada). Cells calcium content was normalized to protein content.

The next test concerns WVK rat model. Nature of the test: Warfarin and vitamin K (WVK) rat model of aortic calcification. In kind it is in vivo. Here is the method:
Animal experiments were approved by the Animal Care and Use Committee of Laval and Montreal Universities. Male Wistar rats (initial weight 200 g) were obtained from Charles River Breeding Laboratories (St Constant, Qc, Canada). The animals received warfarin (20 mg/kg/day in drinking water) and vitamin K (phylloquinone) (15 mg/kg/day subcutaneous injection) (WVK) (n=10) at day 1, 3, 5, 7, 14, 21, and 28. Dosages were adjusted every second day. Controls consisted of age-matched untreated rats (n=7). In two other groups of rats, ARL 67156 was administered at 0.55 μg/kg/day (n=10) and 1.1 μg/kg/day (n=10) during 28 days with osmotic pumps implanted subcutaneously. At day 28, animals were anesthetized with pentobarbital (65 mg/kg) for blood plasma sampling and the harvesting of aorta and heart. Segments of the aorta were frozen at −80° C. for the determination of calcium amount. The heart with the aortic root and valve was fixed in formaldehyde 10% for histological processing and immunohistology. […] Morphometric analyses of the aortic root (at the level of aortic valve and sinuses of Valsalva) were carried out using the Image-Pro Plus (MediaCybernetics, Bethesda, Md., USA) image analysis software to quantify the calcified areas (with the von Kossa staining) normalized to the total surface area of the section.

The target of another test is T1, ENPP-1 (Homo sapiens, UniProt P22413).
T1 construct: endogenous in cells; host or cells: primary human valve interstitial cells (VICs)
T1 sequence (P22413 1-925): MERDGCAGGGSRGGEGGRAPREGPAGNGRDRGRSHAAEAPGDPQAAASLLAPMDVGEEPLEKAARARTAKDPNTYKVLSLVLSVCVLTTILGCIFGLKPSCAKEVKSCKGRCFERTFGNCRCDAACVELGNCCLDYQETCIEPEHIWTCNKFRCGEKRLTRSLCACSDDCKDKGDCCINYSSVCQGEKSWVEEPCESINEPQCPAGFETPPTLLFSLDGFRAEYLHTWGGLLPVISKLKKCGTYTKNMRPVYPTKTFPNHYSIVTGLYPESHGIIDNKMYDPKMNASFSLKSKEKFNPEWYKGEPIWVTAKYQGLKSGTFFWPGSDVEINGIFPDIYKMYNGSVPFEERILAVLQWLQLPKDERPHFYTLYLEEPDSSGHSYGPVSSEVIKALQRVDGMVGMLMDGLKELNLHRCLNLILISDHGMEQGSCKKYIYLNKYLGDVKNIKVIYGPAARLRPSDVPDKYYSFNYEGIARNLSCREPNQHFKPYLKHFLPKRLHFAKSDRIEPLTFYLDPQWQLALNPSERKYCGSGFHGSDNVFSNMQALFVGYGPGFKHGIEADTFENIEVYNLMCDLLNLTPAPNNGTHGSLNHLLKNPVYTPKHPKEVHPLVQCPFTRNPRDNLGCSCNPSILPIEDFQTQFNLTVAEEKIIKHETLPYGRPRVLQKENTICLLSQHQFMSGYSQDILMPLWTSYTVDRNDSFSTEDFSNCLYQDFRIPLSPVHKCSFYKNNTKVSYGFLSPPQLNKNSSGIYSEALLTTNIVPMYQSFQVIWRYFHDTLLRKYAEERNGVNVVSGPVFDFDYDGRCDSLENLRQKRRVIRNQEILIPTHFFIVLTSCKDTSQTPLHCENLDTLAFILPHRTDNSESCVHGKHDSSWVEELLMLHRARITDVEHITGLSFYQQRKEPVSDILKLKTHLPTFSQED
Nature of the test: Phosphodiesterase activity in valve interstitial cells exposed to calcifying medium. It is filed as cell-based. To be noted: VICs, calcifying medium (NaH2PO4 2 mM), 14 days; ARL 67156 10 μM and 25 μM. Here is the method: Phosphodiesterase activity was measured using the substrate p-nitrophenyl phenylphosphonate (PNPP-PP) (Sigma, Oakville, Ont, Canada). Proteins were isolated from normal control valves (n=14), AS valves (n=18) or valve interstitial cells (VICs) and used for enzyme activity. Cells were harvested with trypsine-EDTA (Invitrogen, Toronto, Ont, Canada), washed 2 times in washing buffer (NaCl 0.15M, TRIS-HCl pH 8.1, 20 mM, CaCl2 1 mM) and resuspended in assay buffer (NaCl 0.15M, TRIS-HCl pH 8.1, 20 mM, CaCl2 0.5 mM, 1 mM p-nitrophenyl phenylphosphonate). The same amount of proteins isolated from tissues were washed twice in washing buffer and resuspended in 600 μl of assay buffer. […] Absorbance was measured at 400 nm. Results were calculated using a molar absorption coefficient for p-nitrophenol of 18320 M^−1 cm^−1. […]
Human valve interstitial cells (VICs) were isolated by collagenase digestion from explanted hearts during transplant procedures. […] For calcium quantification, cells were decalcified with 0.6 M HCl for 24 h. The calcium content of the HCl supernatants was determined using the o-cresolphthalein complexone method. […] The protein content was determined using Biorad® assay kit (Biorad, Mississauga, Ont, Canada). […]

Another test relates to alkaline phosphatase. Kind of test: Alkaline phosphatase activity in valve interstitial cells exposed to calcifying medium. It is filed as cell-based, human. To be noted: VICs after exposition to calcifying medium. The procedure: as §1

Consider `CCN(CC)c1ncnc2c1ncn2C1OC(COP(=O)(O)OP(=O)(O)C(Br)(Br)P(=O)(O)O)[C@@H](O)[C@H]1O` (some centres unmarked) [ARL 67156], for which, in test [1], the “calcification of isolated VICs” value is reported as “significantly reduced; also recorded: dose-dependently reduced”. In the test on WVK rat model (rat treated with 1.1 μg/kg/d, von Kossa histology (FIG. 5F)), the “calcification of the aortic root at the level of aortic cusp” value is “without calcification”. In the test with WVK rat model (rats under WVK regimen, 28 days, 0.55 μg/kg/d and 1.1 μg/kg/d by osmotic pump), the “calcification of the aortic valve cusps” value is listed as “prevented the development of aortic valve calcifications; also recorded: not detected”. Besides, at ENPP-1, the phosphodiesterase activity result is “dose-dependently decreased; also recorded: significantly reduced”. The “alkaline phosphatase (ALP) activity” value in the test on alkaline phosphatase was “did not affect; also recorded: not affected”.
